{
  "source": "patent US10441744B2",
  "about": "“Flushable catheter affixed to a wash line activated by a microfluidic pressure switch” (priority 2013, dated 2019)",
  "system": "cells attached to plastic surface",
  "assay": "detachment and removal of cells from plastic surface by cleaning solutions",
  "type": "cell-based",
  "description": "The first step with solution A: Solution A contains proteases. Proteases can be used to digest proteins attached to plastic surface. For example, trypsin can be used to release a cell layer from plastic dishes. An application of trypsin (pre-warmed at 37° C.) can lead the single cell layer to detach from the plastic bottom in a few minutes. When incubated at 30° C. (may be similar to the temperature of the part of catheters out of body), trypsin may detach heavy, multilayer cells from plastic surface in 30 min. Biofilm often contains multi-layers of cells can be digested and detach the layers of cells from plastic surface 30 min after trypsin incubation at 37° C.\nThe second step with solution B: While most of the cells may be detached by protease treatment (such as trypsin), a few cells may remain on the plastic surface, particularly when the incubation temperature is not at optimal digestive temperature (such as 37° C. for trypsin) as may happen for the part of catheters out of patients. Solution B may be used to continue the treatment for two purposes. Solution B contains high ion concentration that may reduce attachment of cell to plastic surface at room temperature. High ion concentration such as addition of 0.45M NaCl may also further reduce proteins binding to the surface (Ouyang et al., 1997). The second purpose is to deactivate remaining trypsin as a buffer without calcium and magnesium. […] Although it is not necessary to understand the mechanism of action of the current invention, it is believed that a higher concentration of saline solution (0.45M NaCl or above), similar to elution buffer for ion chromatography, helps to clean cells and/or proteins still attached to plastic due to charge of the ions.\nThe third step with solution C: After most of the bacterial and cells detach from plastic and wash away, 70% ethanol may be applied to kill possible bacterial remains and/or denature proteins still attached on the plastic surface. […]",
  "data": [
    {"substance": "trypsin", "values": [
      {"measurement": "time to detach heavy, multilayer cells from plastic surface", "setting": "incubated at 30° C.", "value": 30, "unit": "min"},
      {"measurement": "time to digest and detach layers of cells (biofilm multi-layers) from plastic surface", "setting": "trypsin incubation at 37° C.", "value": 30, "unit": "min"},
      {"measurement": "time for single cell layer to detach from the plastic bottom", "setting": "trypsin pre-warmed at 37° C.", "value": "a few minutes"}
    ]}
  ]
}
